Results: US10894794B1, “Substituted [1,2,4]triazolo[4,3-a]pyrazines as antidiabetics” (King Abdulaziz University, priority 2019, dated 2021)
pIC50: −log10 of the molar value. Marks after values point to notes of the source that are not given here.

What was measured:
[1] = test system: overnight fasted diabetic mice; assay: OGTT after multiple doses (6 consecutive days); assay type: in vivo; conditions: for AUC in OGTT, % change from diabetic control / AUC in OGTT, Δ from diabetic control / Relative potency to sitagliptin (OGTT AUC) / AUC in OGTT, X (arithmetic mean): 50 mg/kg oral for six days; for AUC in OGTT, X (arithmetic mean): 2 h before glucose loading, AUC 0-120 min; for relative potency in OGTT compared with sitagliptin (in words): 6 consecutive days, 50 mg/kg
Method: The tested compounds were given daily by oral gavage for 6 consecutive days. On day 6, the overnight fasted diabetic mice were pretreated with the 6th oral dose of the tested compounds. Then an oral glucose was loaded (2 g/kg/10 ml b.w.) 2 h after drug treatment. Blood glucose levels were determined using the Accu-check Go® (Roche Diagnostics, Michigan, USA). Samples were collected just before drug administration (Fasting Blood glucose), then 2 h after drug treatment and before glucose administration. Sample collection was continued at 20, 40, 60 and 120 min intervals after glucose loading.
• b. Group 1: Animals of this group are 14 h overnight-fasted normoglycemic mice received the vehicle (1% CMC-Na) at a dosing volume of 10 ml/kg/day for six consecutive days. • c. Group 2: Overnight-fasted diabetic mice received the vehicle (1% CMC-Na) at a dosing volume of 10 ml/kg/day for six consecutive days and served as a negative control. • d. Group 3: Overnight-fasted diabetic mice received sitagliptin at a dose of 50 mg/kg/day for six consecutive days and served as positive control. • e. Groups 4-17: Animals in these groups were overnight-fasted diabetic mice and received the tested compounds 128, 129, 130, 131, at a dose of 50 mg/kg/day for six consecutive days (volume of 10 ml/kg). Effect on Blood Glucose Level after Introduction of Food for One Hour (≈Meal Tolerance Test) Rational of the Test

DPP-IV enzyme = DPP-IV enzyme (Homo sapiens (Human), UniProt P27487); assay: DPP-IV inhibition assay (Biovision kit, fluorescence); assay type: biochemical; conditions: read-out: IC50 (DPP4 inhibition)
Sequence of DPP-IV enzyme (P27487 whole entry, species assumed): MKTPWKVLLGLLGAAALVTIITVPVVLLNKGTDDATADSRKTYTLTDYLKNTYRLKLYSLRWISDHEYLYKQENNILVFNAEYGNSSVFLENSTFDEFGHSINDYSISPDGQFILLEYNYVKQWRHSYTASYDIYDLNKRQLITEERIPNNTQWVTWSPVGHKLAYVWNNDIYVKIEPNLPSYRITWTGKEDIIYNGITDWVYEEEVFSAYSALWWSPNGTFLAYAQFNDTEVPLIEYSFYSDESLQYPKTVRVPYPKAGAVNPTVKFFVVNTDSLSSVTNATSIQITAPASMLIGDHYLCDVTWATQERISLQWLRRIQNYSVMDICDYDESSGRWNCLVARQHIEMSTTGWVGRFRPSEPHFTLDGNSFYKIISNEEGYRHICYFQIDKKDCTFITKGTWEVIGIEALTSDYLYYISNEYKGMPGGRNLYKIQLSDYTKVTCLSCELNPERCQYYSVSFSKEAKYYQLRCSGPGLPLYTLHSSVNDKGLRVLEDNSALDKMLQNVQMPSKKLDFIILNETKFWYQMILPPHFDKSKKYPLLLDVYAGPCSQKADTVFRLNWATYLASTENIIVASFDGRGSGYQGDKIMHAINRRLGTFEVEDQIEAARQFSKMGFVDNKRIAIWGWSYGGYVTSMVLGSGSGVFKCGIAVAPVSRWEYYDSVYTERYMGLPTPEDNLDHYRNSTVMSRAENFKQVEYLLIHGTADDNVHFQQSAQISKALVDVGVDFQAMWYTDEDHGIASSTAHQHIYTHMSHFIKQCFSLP
Method: Sitagliptin phosphate monohydrate and the different tested compounds were dissolved in dimethyl sulphoxide (DMSO) and diluted with tris buffer (pH 8.0, 50 mM) to achieve the required concentrations. DPP-IV inhibition assay was conducted using a kit purchased from Biovision (Milpitas, Calif., USA). Briefly, DPP-IV enzyme was diluted with tris buffer and pipetted 50 μl into glass mini-cells. Subsequently the 25 μl of tris buffer, sitagliptin phosphate monohydrate or the tested compounds was added and incubated at 37° C. for 20 min protected from light. Finally, a volume of 25 μl of DPP-IV substrate was added into each tube. The fluorescence generated from hydrolysis of the substrate was read at Ex/Em=360/460 nm using Modulus® single tube multimode reader (Promega, USA). Baseline fluorescence was recorded before incubation (R1) and 20 min after incubation (R2). Percentage inhibition was calculated according to the following equation: […] where, ΔRFU=R2−R1 and EC is the enzyme control (enzyme solution without inhibitor) which is considered 100% activity.
The standard DPP-IV inhibitor drug sitagliptin was employed as positive control. […] Sigmoidal dose-response curves for DPP-IV % inhibition versus log concentrations were plotted using Graphpad prism software, version 5.00 (GraphPad Software, Inc. La Jolla, Calif., USA). The IC50 value corresponds to the concentration of sample needed to inhibit DPP-IV by 50%.

STZ-diabetic mice = assay: Fasting blood glucose of diabetic mice during six days of treatment; assay type: in vivo; conditions: for activity in controlling the rise of blood glucose levels in streptozotocin diabetic animals (in words) / control of fasting blood sugar compared with sitagliptin and the other compounds (in words): 50 mg/kg/day; for activity in controlling the rise of blood glucose levels in streptozotocin diabetic animals (in words): 6-day interval; for control of fasting blood sugar compared with sitagliptin and the other compounds (in words): 6 days; for Blood glucose level, fasting: 50 mg/kg/day oral, diabetic mice, mean ± SEM
From the text: Our objective was to test the efficacy of the synthesized compounds for their potential to reduce blood glucose in STZ-diabetic mice. The synthesized compounds Nos. 128, 129, 130, 131,140, 142 were expected to act through the inhibition of the DPP-IV enzyme, which is responsible for the degradation of the entero-peptide GLP-I. In turn, GLP-I increases insulin and decreases glucagon release from the pancreatic islets (β and α-cells respectively). So this part of the project was designed to study the effect of the synthesized gliptin simulated compounds on blood glucose levels and their efficacy to increase glucose utilization in diabetic mice through: • a. The effect of the tested compounds in a dose of 50 mg/kg/day on fasting blood glucose blood levels of diabetic mice during six days of treatment. • b. Oral glucose tolerance test (OGTT) through oral glucose loading, 2 h after treatment with single oral dose (50 mg/kg) of the tested compounds in 14 h overnight fasted mice. • c. OGTT through oral glucose loading, 2 h after treatment with the 6th oral dose (50 mg/kg) of the tested compounds in 14 h overnight fasted mice. • d. The effect of the pretreatment with the tested compounds at an oral dose of 50 mg/kg on blood glucose levels, 3 h before and 3 h after meal feeding (feeding for one hour only, then food was removed immediately) in 14 h overnight-fasted diabetic mice.
Blood samples were collected from the tail vein and the blood glucose level was determined. Curves of blood glucose levels (mg/dL) versus the time intervals (min) were constructed and the area under the curves (AUCs) were calculated by the method of calculation embedded in GraphPad Prism® v. 5.0 (GraphPad Software, San Diego, Calif., USA). AUCs of the curves of the different groups were compared and tested for significance against control groups.
All data are presented as means±SEM. Statistical significance was evaluated by analysis of variance (ANOVA) followed by Tukey-Kramer's post hoc test for multiple comparisons. The “t” of the paired data was used to test the significance of the values of the fasting blood glucose compared to the values before treatment. Statistical significance was accepted at a level of p<0.05.

[2] = test system: 14 h overnight fasted diabetic mice; assay: Oral glucose tolerance test (OGTT) after single dose; assay type: in vivo; conditions: for glucose-lowering activity in OGTT compared with sitagliptin (in words): single dose 50 mg/kg; for Relative potency to sitagliptin (OGTT AUC) / AUC in OGTT, % change from diabetic control / AUC in OGTT, Δ from diabetic control / AUC in OGTT, X (arithmetic mean): single oral dose 50 mg/kg; for AUC in OGTT, % change from diabetic control / AUC in OGTT, Δ from diabetic control / AUC in OGTT, X (arithmetic mean): 2 h before glucose loading; for AUC in OGTT, X (arithmetic mean): AUC 0-120 min
Method: The oral glucose tolerance test was done in 14 h overnight fasted diabetic mice that were pretreated with a single oral dose of the tested compounds. Each of the tested agents was suspended in sodium carboxymethyl cellulose (CMC-Na) (1% in distilled water) and the dosing volume was adjusted to 10 ml/kg body weight per mouse. Then an oral glucose load was administered (2 g/kg) 2 h after drug treatment. Blood glucose levels were determined using the Accu-check Go® (Roche Diagnostics, Michigan, USA). Blood samples were collected just before drug administration (Fasting Blood glucose), then 2 h after drug treatment and before glucose loading. Blood samples collection was continued at 20, 40, 60 and 120 min intervals after glucose loading.
Animals were distributed between 17 groups (n=6) as follow: • a. Group 1: Animals were 14 h overnight-fasted normoglycemic mice and vehicle-treated (1% CMC-Na) at a dose of 10 ml/kg. • b. Group 2: Overnight fasted diabetic mice received the vehicle (1% CMC-Na) at a dosing volume of 10 ml/kg and served as a negative control. • c. Group 3: Overnight fasted diabetic mice received sitagliptin at a dose of 50 mg/kg in 1% CMC (in a volume of 10 ml/kg) and served as positive control. • a. Groups 4-17: Animals of these groups were overnight fasted diabetic mice received the tested compounds 128, 129, 130, 131, at a dose of 50 mg/kg in 1% CMC (volume of 10 ml/kg).

pIC50 (DPP-IV enzyme)	Compound	AUC in OGTT, % change from diabetic control [1] [%]	AUC in OGTT, Δ from diabetic control [1] [mg·min/dL]	Relative potency to sitagliptin (OGTT AUC) [1]	AUC in OGTT, X (arithmetic mean) [1]	relative potency in OGTT compared with sitagliptin (in words) [1]	activity in controlling the rise of blood glucose levels in streptozotocin diabetic animals (in words) (STZ-diabetic mice)	control of fasting blood sugar compared with sitagliptin and the other compounds (in words) (STZ-diabetic mice)	control of fasting blood sugar compared with sitagliptin and the other compounds (in words) (STZ-diabetic mice; listed as 130)	glucose-lowering activity in OGTT compared with sitagliptin (in words) [2]	Relative potency to sitagliptin (OGTT AUC) [2]	AUC in OGTT, % change from diabetic control [2] [%]	AUC in OGTT, Δ from diabetic control [2] [mg·min/dL]	AUC in OGTT, X (arithmetic mean) [2]	Blood glucose level, fasting (STZ-diabetic mice; Day 1) [mg/dL]	Blood glucose level, fasting (STZ-diabetic mice; Day 4) [mg/dL]	Blood glucose level, fasting (STZ-diabetic mice; Day 5) [mg/dL]
9.68	C[C@H](NC(=O)c1cccc(Cl)c1)C(=O)N1CCn2c(nnc2C(F)(F)F)C1 [GLP-130]	−34.11	-17983	0.90	34672* mg · dL^−1 · min	comparable or higher relative potency than sitagliptin	significant activity	most consistent and extended activities	comparable to that of sitagliptin	higher glucose-lowering activity than sitagliptin	1.32	−32.01	-16345	34720* mg · dL^−1 · min	–	–	–
8.74	O=C(CN1CCn2c(nnc2C(F)(F)F)C1)NC1CCCCC1 [GLP-140]	−38.32	-20180	1.01	32475* mg · dL^−1 · min	comparable or higher relative potency than sitagliptin	significant activity	comparable to that of sitagliptin	–	less potent than sitagliptin	0.69	−16.89	-8626	42439 mg·min/dL	210.0 ± 12.345	–	–
9.74	N#Cc1cccc(NC(=O)CN2CCn3c(nnc3C(F)(F)F)C2)c1 [GLP-142]	−19.4	-10216	0.513	42439* mg · dL^−1 · min	–	significant activity	comparable to that of sitagliptin	–	less potent than sitagliptin	0.76	−18.51	-9452	41613 mg·min/dL	230.0 ± 13.769	188.8 ± 25.784	205.4 ± 39.315
